Data taken from ChEMBL document CHEMBL4725269, “Exploring the newer oxadiazoles as real inhibitors of human SIRT2 in hepatocellular cancer cells” (Bioorg Med Chem Lett, 2020).

Assays:
[1] = system: L02; assay: Cytotoxicity against human L02 cells assessed as reduction in cell proliferation measured after 72 hrs by MTT assay; format: cell-based; conditions: L02, 72 h
[2] = Antiproliferative activity against human HCCLM3 cells assessed as reduction in cell proliferation measured after 72 hrs by MTT assay; format: functional, cell-based; conditions: HCCLM3, 72 h
[3] = system: HepG2; assay: Antiproliferative activity against human HepG2 cells assessed as reduction in cell proliferation measured after 72 hrs by MTT assay; format: functional, cell-based; conditions: HepG2, 72 h
[4] = system: HepG2; assay: Cell cycle arrest in human HepG2 cells assessed as accumulation at subG1 phase at 15 uM measured after 24 hrs by FACS based flow cytometry analysis (reference value: 3 %); format: functional
[5] = system: HepG2; assay: Cell cycle arrest in human HepG2 cells assessed as accumulation at subG1 phase at 15 uM measured after 72 hrs by FACS based flow cytometry analysis (reference value: 3 %); format: functional
[6] = system: HepG2; assay: Cell cycle arrest in human HepG2 cells assessed as accumulation at subG1 phase at 5 uM measured after 72 hrs by FACS based flow cytometry analysis (reference value: 4 %); format: functional
[7] = system: HepG2; assay: Reduction in SIRT2 expression in human HepG2 cells at 15 uM by Western blot analysis; format: functional, cell-based; conditions: time hrs 24-72, TDE = time-dependent effect
[8] = system: HepG2; assay: Reduction in SIRT2 expression in human HepG2 cells measured after 72 hrs by Western blot analysis; format: functional, cell-based; conditions: dose microM 5-30, time 72.0 hrs
[9] = system: HepG2; assay: Cell cycle arrest in human HepG2 cells assessed as accumulation at subG1 phase at 30 uM measured after 72 hrs by FACS based flow cytometry analysis (reference value: 4 %); format: functional
[10] = system: HepG2; assay: Cell cycle arrest in human HepG2 cells assessed as accumulation at subG1 phase at 15 uM measured after 48 hrs by FACS based flow cytometry analysis (reference value: 3 %); format: functional
[11] = system: HepG2; assay: Cell cycle arrest in human HepG2 cells assessed as accumulation at subG1 phase at 15 uM measured after 72 hrs by FACS based flow cytometry analysis (reference value: 4 %); format: functional

| Compound | IC50 [1] [µM] | IC50 [2] [µM] | IC50 [3] [µM] | also measured |
| --- | --- | --- | --- | --- |
| Cn1nc(-c2nnc(-c3ccc(O)cc3)o2)c2ccccc21 | > 100 | > 100 | 86.4 | – |
| Cn1nc(-c2nnc(-c3cccc(Cl)c3)o2)c2ccccc21 | > 100 | > 100 | 21.4 | – |
| COc1ccc(-c2nnc(-c3nn(C)c4ccccc34)o2)cc1 | > 100 | > 100 | 19.5 | Activity [4]: 10%; Activity [5]: 55%; Activity [6]: 10%; inhibition [7]: Tde; inhibition [8]: Dose-dependent effect; Activity [9]: 55%; Activity [10]: 45%; Activity [11]: 41% |
| Cc1ccc(C(=O)Nc2ccc(S(=O)(=O)O)c3cc(S(=O)(=O)O)cc(S(=O)(=O)O)c23)cc1NC(=O)c1cccc(NC(=O)Nc2cccc(C(=O)Nc3cc(C(=O)Nc4ccc(S(=O)(=O)O)c5cc(S(=O)(=O)O)cc(S(=O)(=O)O)c45)ccc3C)c2)c1 [SURAMIN] | – | – | 67.4 | – |
| Cn1nc(-c2nnc(-c3ccccc3Cl)o2)c2ccccc21 | > 100 | > 100 | 45 | – |
| Cn1nc(-c2nnc(-c3cccc(Br)c3)o2)c2ccccc21 | > 100 | > 100 | 24.5 | – |
| Cc1cccc(-c2nnc(-c3nn(C)c4ccccc34)o2)c1 | > 100 | > 100 | 60 | – |
| Cn1nc(-c2nnc(-c3ccccc3)o2)c2ccccc21 | 84.6 | 100 | 37.5 | – |
| CC(=O)O[C@H]1C(=O)[C@@]2(C)[C@H]([C@H](OC(=O)c3ccccc3)[C@]3(O)C[C@H](OC(=O)[C@H](O)[C@@H](NC(=O)c4ccccc4)c4ccccc4)C(C)=C1C3(C)C)[C@]1(OC(C)=O)CO[C@@H]1C[C@@H]2O [PACLITAXEL] | – | – | 3.9 | – |
| Cn1nc(-c2nnc(-c3ccc(Cl)cc3)o2)c2ccccc21 | > 100 | > 100 | 42 | – |
| Cn1nc(-c2nnc(-c3ccccc3Br)o2)c2ccccc21 | 89 | > 100 | 22.3 | – |
| Cn1nc(-c2nnc(-c3ccc(Br)cc3)o2)c2ccccc21 | > 100 | > 100 | 40 | – |
| Cc1ccc(-c2nnc(-c3nn(C)c4ccccc34)o2)cc1 | > 100 | > 100 | 38.7 | – |
